Measured values as given in US20160137639A1, “TRIAZOLE-ISOXAZOLE COMPOUND AND MEDICAL USE THEREOF” (JAPAN TOBACCO INC., priority 2012, published 2016).
Read-outs that look alike come from different tables or passages of the source.

How the values were obtained:
human RORγ = biological target: T1, human RORγ (Homo sapiens, UniProt P51449); experiment: Luciferase reporter gene assay of inhibitory effect against RORγ transcriptional activity (GAL4-hRORγ plasmid in CHO cells); type: cell-based
T1 construct: human, NM_005060.3 and from Ser253 to Lys518; expressed in transfected cells; host or cells: CHO cells (transient co-transfection with pG5-Luc reporter)
T1 sequence (P51449 253-518): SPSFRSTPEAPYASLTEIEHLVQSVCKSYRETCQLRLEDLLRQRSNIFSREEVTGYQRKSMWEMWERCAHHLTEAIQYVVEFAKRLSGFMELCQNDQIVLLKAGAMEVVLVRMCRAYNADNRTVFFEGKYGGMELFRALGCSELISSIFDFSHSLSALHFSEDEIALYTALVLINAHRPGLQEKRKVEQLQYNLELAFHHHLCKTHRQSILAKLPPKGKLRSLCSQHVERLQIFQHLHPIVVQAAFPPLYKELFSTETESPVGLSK

mouse RORγ = biological target: T2, mouse RORγ (Mus musculus, UniProt P51450); experiment: Luciferase reporter gene assay of inhibitory effect against RORγ transcriptional activity (GAL4-mRORγ plasmid in CHO cells); type: cell-based
T2 construct: mouse, NM_011281.2 and from Ile251 to Lys516; expressed in transfected cells; host or cells: CHO cells (transient co-transfection with pG5-Luc reporter)
T2 sequence (P51450 251-516): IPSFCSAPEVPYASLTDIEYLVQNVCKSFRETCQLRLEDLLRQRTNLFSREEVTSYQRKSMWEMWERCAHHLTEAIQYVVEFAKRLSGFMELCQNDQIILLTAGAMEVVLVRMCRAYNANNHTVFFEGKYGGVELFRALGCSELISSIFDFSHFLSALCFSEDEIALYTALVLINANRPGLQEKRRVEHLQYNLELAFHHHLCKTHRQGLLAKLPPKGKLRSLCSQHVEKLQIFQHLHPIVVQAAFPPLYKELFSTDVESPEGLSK
In short: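 Readout is intracellular luciferase after 2-day compound exposure (8 concentrations, 0.1% DMSO) in CHO cells expressing GAL4 fused to mouse RORγ LBD residues Ile251–Lys516 plus pG5-Luc reporter. EC50 fitted from %-of-control; points showing resazurin-detected cytotoxicity dropped.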

Row | Structure (SMILES) | EC50 (human RORγ; read-out: LUC EC50 hRORg) | EC50 (mouse RORγ; read-out: LUC EC50 mRORg) | EC50 (human RORγ; read-out: LUC EC50 (μM) hRORg) | EC50 (mouse RORγ; read-out: LUC EC50 (μM) mRORg)
1 | Cc1ccc(NC(=O)[C@@H]2CC(C)(O)C[C@H]2c2nnc([C@H]3C[C@@H](CC(C)C)C3)n2C2CC2)c(C)c1 (single isomer, unassigned) [Example F-563] | < 3 µM | < 3 µM | – | –
2 | CC(C)CCc1nnc(CCC(=O)NCc2ccccc2)n1C1CC1 [Example F-57] | – | – | > 3 µM | > 3 µM
3 | CC(C)Cc1cc(-c2nnc([C@H](CC(=O)Nc3cccc4c3OC(F)(F)O4)OC(C)C)n2C2CC2)no1 [Example F-584] | > 3 µM | < 3 µM | – | –
4 | Cc1ccc(NC(=O)[C@@H](CC(=O)O)Cc2noc([C@H]3C[C@@H](CC(C)C)C3)c2C2CC2)c(C)c1 [Example F-668] | > 3 µM | < 3 µM | – | –
5 | Cc1ccc(NC(=O)CCc2nnc(CCCC(C)C)n2C2CC2)c(C)c1 [Example F-215] | – | – | < 3 µM | < 3 µM
6 | C=CCC(CC(=O)Nc1ccc(C)cc1C)c1nnc(CCCC(C)(C)C)n1CC(F)(F)F (racemic) [Example F-373] | – | – | < 3 µM | < 3 µM
7 | Cc1ccc(NC(=O)CCc2nnc(C3CC(CC(=O)OC(C)(C)C)C3)n2C2CC2)c(C)c1 (mixture of isomers) [Example F-427] | – | – | > 3 µM | < 3 µM
8 | Cc1c(Cl)cccc1NC(=O)CCc1nnc(CCC(C)(C)C(=O)N(C)C)n1C1CC1 [Example F-239] | – | – | > 3 µM | > 3 µM
9 | CC(=O)N1CC[C@H](C(=O)Nc2ccc(C)cc2C)[C@H]1c1nnc(CCCC(C)(C)C)n1C1CC1 [Example F-296] | – | – | < 3 µM | < 3 µM
10 | Cc1ccc(NC(=O)C[C@H](CCC(=O)O)c2noc(-c3ncc(CC(C)C)s3)c2C2CC2)c(Cl)c1 [Example E-15] | – | – | < 3 µM | < 3 µM
11 | Cc1ccc(NC(=O)C[C@H](CCc2nnn[nH]2)c2noc([C@H]3C[C@@H](CC(C)C)C3)c2C2CC2)c(C)c1 [Example F-644, (S)-3-[4-cyclopropyl-5-(3-isobutyl-cyclobutyl)-isoxazol-3-yl]-5-(1H-tetrazole-5-yl)-valeric acid (2,4-dimethyl-phenyl)-amide] | < 3 µM | < 3 µM | – | –
12 | CCN(CC)C(=O)CN1C[C@H](C(=O)Nc2ccc(C)cc2C)[C@@H](c2nnc([C@H]3C[C@@H](CC(C)C)C3)n2C2CC2)C1 [Example F-653] | < 3 µM | < 3 µM | – | –
13 | Cc1ccc(NC(=O)C[C@@H](CCO)c2nnc(CCC3CCCCC3)n2C2CC2)c(C)c1 [Example F-384] | – | – | > 3 µM | > 3 µM
14 | Cc1ccc(NC(=O)C[C@H](CCO)c2nnc(-c3cc(CC(C)C)on3)n2C2CC2)c(C)c1 [Example F-659] | < 3 µM | < 3 µM | – | –
15 | CC(C)C[C@H]1C[C@@H](c2nnc([C@@H](CCO)CC(=O)Nc3cccc4c3CCC4)n2C2CC2)C1 [Example F-543] | < 3 µM | < 3 µM | – | –
16 | Cc1ccc(NC(=O)CC(CCO)c2nnc(CCCC(C)C)n2C2CC2)c(C)c1 (racemic) [Example F-201] | – | – | < 3 µM | < 3 µM
17 | Cc1ccc(NC(=O)CCc2nnc([C@H]3C[C@@H](CC(C)C)C3)n2C2CC2)c(C)c1 [Example F-358] | – | – | < 3 µM | < 3 µM
18 | Cc1cnccc1CNC(=O)CCc1nnc(CCC(C)C)n1C1CC1 [Example F-111] | – | – | > 3 µM | > 3 µM
19 | Cc1ccc(NC(=O)CCc2nnc([C@H]3C[C@H](CC(C)C)C3)n2C2CC2)c(C)c1 [Example F-357] | – | – | < 3 µM | < 3 µM
20 | Cc1cc(Cl)ccc1NC(=O)C[C@H](CCO)c1nnc(-c2cc(CCC(C)C)on2)n1C1CC1 [Example F-616] | < 3 µM | < 3 µM | – | –
21 | Cc1ccc(NC(=O)CCc2nnc(-c3ccc(OC(C)C)cc3)n2C2CC2)c(C)c1 [Example F-441] | – | – | > 3 µM | < 3 µM
22 | Cc1ccc(NC(=O)C[C@H](CCC(=O)O)c2noc([C@H]3C[C@@H](CC(C)(C)CO)C3)c2C2CC2)c(Cl)c1 [Example F-716] | < 3 µM | < 3 µM | – | –
23 | Cc1cc(F)ccc1NC(=O)CCc1nnc(CCC(C)C)n1C1CC1 [Example F-137] | – | – | > 3 µM | < 3 µM
24 | CC(C)(C)C[C@H]1C[C@@H](c2onc([C@@H](CCC(=O)O)CC(=O)NS(=O)(=O)c3ccccc3)c2C2CC2)C1 [Example F-723] | > 3 µM | > 3 µM | – | –

Row | Structure (SMILES) | EC50 (human RORγ; read-out: LUC EC50 hRORg) | EC50 (mouse RORγ; read-out: LUC EC50 mRORg) | EC50 (human RORγ; read-out: LUC EC50 (μM) hRORg) | EC50 (mouse RORγ; read-out: LUC EC50 (μM) mRORg)
25 | Cc1ccc(NC(=O)[C@H]2CC(O)(C(F)(F)F)C[C@@H]2c2nnc([C@H]3C[C@@H](CC(C)C)C3)n2C2CC2)c(C)c1 (mixture of isomers) [Example F-545] | < 3 µM | < 3 µM | – | –
26 | Cc1ccc(NC(=O)C[C@H](CCO)c2nnc(-c3cc(CC(C)(C)C)on3)n2C2CC2)c(C)c1 [Example F-612] | < 3 µM | < 3 µM | – | –
27 | COC(=O)N1C[C@H](C(=O)Nc2ccc(C)cc2C)[C@@H](c2nnc(CCCC(C)(C)C)n2C2CC2)C1 (racemic) [Example F-399] | – | – | < 3 µM | < 3 µM
28 | Cc1ccc(NC(=O)C[C@H](CC(O)C(F)(F)F)c2nnc([C@H]3C[C@@H](CC(C)C)C3)n2C2CC2)c(C)c1 (single isomer, unassigned) [Example F-622] | < 3 µM | < 3 µM | – | –
29 | Cc1c(Cl)cccc1NC(=O)CC(O)c1nnc(CCC(C)C)n1C1CC1 (racemic) [Example F-164] | – | – | > 3 µM | < 3 µM
30 | Cc1ccc(NC(=O)CC(CCCN2C(=O)c3ccccc3C2=O)c2nnc(CCCC(C)C)n2C2CC2)c(C)c1 (racemic) [Example F-281] | – | – | < 3 µM | < 3 µM
31 | CC(C)(C)C[C@H]1C[C@@H](c2onc([C@@H](CCC(=O)O)CC(=O)NCC3CCOCC3)c2C2CC2)C1 [Example F-736] | > 3 µM | > 3 µM | – | –
32 | Cc1ccc(NC(=O)C[C@H](CCC(=O)O)c2noc(-c3cc(CCC(C)C)on3)c2C2CC2)c(F)c1 [Example E-09] | – | – | < 3 µM | < 3 µM
33 | CC(C)(C)C(F)(F)c1cc(-c2onc([C@@H](CCC(=O)O)CC(=O)Nc3ccc(F)cc3Cl)c2C2CC2)no1 [Example E-48] | – | – | < 3 µM | < 3 µM
34 | Cc1ccc(NC(=O)C[C@@H](Cc2nccs2)c2nnc([C@H]3C[C@@H](CC(C)C)C3)n2C2CC2)c(C)c1 [Example F-476] | – | – | < 3 µM | < 3 µM
35 | CCCc1ccccc1NC(=O)CCc1nnc(CCC(C)C)n1C1CC1 [Example F-77] | – | – | > 3 µM | > 3 µM
36 | CC(=O)N1C[C@H](C(=O)Nc2ccc(C)cc2C)[C@@H](c2nnc(CCCC(C)(C)C)n2CC(F)(F)F)C1 (racemic) [Example F-356] | – | – | < 3 µM | < 3 µM
37 | CCn1c(CCC(=O)Nc2cccc(Cl)c2C)nnc1C1Cc2ccccc2C1 [Example F-3] | – | – | > 3 µM | < 3 µM
38 | CCOC(=O)CO[C@@H](CC(=O)Nc1ccc(C)cc1C)c1nnc([C@H]2C[C@@H](CC(C)C)C2)n1C1CC1 [Example F-433] | – | – | < 3 µM | < 3 µM
39 | Cc1c(F)cccc1NC(=O)C[C@H](CCO)c1nnc([C@H]2C[C@@H](CC(F)(F)F)C2)n1C1CC1 [Example F-589] | > 3 µM | > 3 µM | – | –
40 | Cc1ccc(NC(=O)C[C@H](CCC(=O)O)n2nnc([C@H]3C[C@@H](CC(C)(C)C)C3)c2C2CC2)c(Cl)c1 [Example F-682, (S)-5-(2-chloro-4-methyl-phenylcarbamoyl)-4-{5-cyclopropyl-4-[3-(2,2-dimethyl-propyl)-cyclobutyl]-[1,2,3]triazol-1-yl}pentanoic acid] | < 3 µM | < 3 µM | – | –
41 | Cc1c(Cl)cccc1NC(=O)CCc1nnc(CC(=O)O)n1C1CC1 [Example F-264] | – | – | > 3 µM | > 3 µM
42 | Cc1ccc(NC(=O)C[C@H](CCC(=O)O)c2noc([C@H]3C[C@@H](CC(C)(C)C(=O)O)C3)c2C2CC2)c(Cl)c1 [Example F-727] | > 3 µM | > 3 µM | – | –
43 | CC1(C(F)(F)c2cc(-c3onc([C@@H](CCC(=O)O)CC(=O)Nc4ccc(Cl)cc4F)c3C3CC3)no2)CC1 [Example E-67] | – | – | < 3 µM | < 3 µM
44 | CCc1cccc(NC(=O)CCc2nnc(CCC(C)C)n2C2CC2)c1C [Example F-147] | – | – | > 3 µM | < 3 µM
45 | COC1(CC(C)C)CC(c2nnc([C@H]3CN(C(C)=O)C[C@@H]3C(=O)Nc3ccc(C)cc3C)n2C2CC2)C1 (single isomer, unassigned) [Example F-483] | – | – | < 3 µM | < 3 µM
46 | Cc1cc(Cl)ccc1NC(=O)C[C@H](OCC(F)(F)F)c1nnc(-c2cc(CC(C)C)on2)n1C1CC1 [Example F-630] | < 3 µM | < 3 µM | – | –
47 | CCn1c(CCC(=O)NCc2cccc3ccccc23)nnc1C1Cc2ccccc2C1 [Example F-18] | – | – | < 3 µM | < 3 µM
48 | Cc1ccc(NC(=O)C[C@H](CCC(=O)O)c2noc(-c3cc(C(F)(F)C(C)(C)C)on3)c2C2CC2)c(F)c1 [Example E-46] | – | – | < 3 µM | < 3 µM
